Data set [1] can be described thus: Response of purified […] to proline. It counts as biochemical. On the procedure: (§1) Fig. 3 Dose–response curves and fluorescence spectrums of […]s. a, c, e, g, i, k Dose–response curve of purified […]s with increasing concentrations of ligand in 100 mM Tris-HCl buffer (pH=7.5). The normalized ΔF/F0 value increased after ligand binding. All data shown are mean ± S.D. (n = 3 biologically independent samples). b, d, f, h, j, l The fluorescence spectra of […]s changed as the ligand concentration increased. All data shown are mean ± S.D. (n = 3 biologically independent samples). Source data are provided as a Source data file.
(§2) The study conducted dose–response curve, substrate specificity, and fluorescent spectrum analyses in 100-mM Tris buffer (pH = 7.5), while pH stability experiments were performed in 100-mM Tris buffer at three different pH values (6.5, 7.5, and 8.5) at room temperature. […] protein at a concentration of 0.75 μM, various small molecule concentrations, 1 mM ATP, and 2.5 mM MgCl2 were used in the experiments. Fluorescent signals were detected using a Microplate Reader (Synergy H4, Bio Tek) at an excitation/emission wavelength of 460 nm/510 nm or 480 nm/510 nm. The dose-response curve was determined immediately after the addition of the analyte. The total duration of the measurement was 15 min, with readings taken at one-minute intervals. The dose-response curve was plotted using the fluorescence values obtained after achieving stability in the fluorescence signal. The dose-response curves were fitted using the logistic model LOGISTIC5 available in Origin 2021, which could provide a more adequate fit to asymmetric dose-response data[62],[63]. Excitation spectra were scanned from 300 to 540 nm with a step size of 5 nm, and the emission wavelength was set to 560 nm. Emission spectra were scanned from 470 to 700 nm with a step size of 5 nm, and the excitation wavelength was set to 450 nm. The thermal stability of […] was analyzed using the UNcle multifunctional protein stability analysis system. Measurements were performed in 20 mM MOPS buffer with 2 mM DTT at a sample concentration of 1 mg/mL. Absolute fluorescence quantum yields were measured using an absolute photoluminescence quantum yield spectrometer (FS5, Edinburgh).

The nature of data set [2]: Fluorescence spectra / excitation wavelength scan of […]s. It is filed as physicochemical. The note with it: Wavelength 300 nm. The method, then:
Fig. 3 Dose–response curves and fluorescence spectrums of […]s. a, c, e, g, i, k Dose–response curve of purified […]s with increasing concentrations of ligand in 100 mM Tris-HCl buffer (pH=7.5). […] All data shown are mean ± S.D. (n = 3 biologically independent samples). Source data are provided as a Source data file.
as §2

Data set [3] in a line: Substrate (ligand) specificity of […]s. The note with it: Supplementary Fig. 3 c; substrate specificity. It counts as biochemical. A digest of the protocol:
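Purified biosensor protein (0.75 μM) with ligand, 1 mM ATP and 2.5 mM MgCl2 in 100 mM Tris-HCl, pH 7.5, at room temperature. Fluorescence (Ex 460 or 480/Em 510 nm) read each minute for 15 min. Dose-response fitted by 5-parameter logistic; specificity tested with 20 amino acids at 100 μM as normalized ΔF/F0.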

The next data set has as its target T1, GECFINDER-Ile3 (Bacillus licheniformis, UniProt O68006).
T1 construct: gene bacA; BacA-IleA-PCP; cpEGFP inserted, linkers VY-LS
Nature of the data set: Fluorescence dose-response of purified cpEGFP sensors (0.75 uM) in 100 mM Tris-HCl pH 7.5, room temperature, 1 mM ATP, 2.5 mM MgCl2; excitation 400, 460 or 480 nm by sensor, emission 510 nm; logistic five-parameter fit. It is filed as biochemical. Conditions: n = 3. On the procedure:
as §1, §2

For the next data set, the target named is T2, GECFINDER-Ile1 (Bacillus licheniformis, UniProt O68006).
T2 construct: gene bacA; BacA-IleA-PCP; cpEGFP inserted, linkers VY-CA
The data set is described as above. It counts as biochemical. The note with it: n = 3. The method, then:
as §1, §2

A further data set deals with T3, GECFINDER-Ile2 (Bacillus licheniformis, UniProt O68006).
T3 construct: gene bacA; BacA-IleA-PCP; cpEGFP inserted, linkers RY-PG
The description is as above. It counts as biochemical. The note with it: n = 3. The method, then:
as §1, §2

For a further data set, the target named is T4, GECFINDER-Phe3 (Aneurinibacillus migulanus, UniProt P0C061).
T4 construct: gene grsA; GrsA-PheA-PCP; cpEGFP inserted in hinge B, linkers VF-QS
T4 sequence (P0C061 1-617): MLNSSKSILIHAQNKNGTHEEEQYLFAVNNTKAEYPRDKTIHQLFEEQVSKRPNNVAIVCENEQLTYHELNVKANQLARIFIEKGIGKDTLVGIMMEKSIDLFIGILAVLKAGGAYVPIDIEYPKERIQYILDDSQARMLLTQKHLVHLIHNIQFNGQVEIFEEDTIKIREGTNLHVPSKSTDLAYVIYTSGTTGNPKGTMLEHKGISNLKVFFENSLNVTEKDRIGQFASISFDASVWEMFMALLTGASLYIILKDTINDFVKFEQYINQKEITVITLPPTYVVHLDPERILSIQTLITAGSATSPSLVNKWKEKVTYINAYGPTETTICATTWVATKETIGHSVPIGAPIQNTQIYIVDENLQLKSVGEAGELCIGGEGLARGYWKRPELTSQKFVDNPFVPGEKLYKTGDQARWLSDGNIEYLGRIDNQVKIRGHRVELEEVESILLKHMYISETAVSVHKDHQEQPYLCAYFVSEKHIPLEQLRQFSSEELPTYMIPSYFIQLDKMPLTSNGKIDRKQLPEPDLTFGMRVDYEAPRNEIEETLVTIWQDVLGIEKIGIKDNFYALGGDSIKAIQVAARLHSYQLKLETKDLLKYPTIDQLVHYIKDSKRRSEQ
Described as above. It is filed as biochemical. The note with it: n = 3. On the procedure:
as §1, §2

For a further data set, the target named is T5, GECFINDER-Tyr (Aneurinibacillus migulanus, UniProt P0C061, W239S).
T5 construct: gene grsA
Briefly: Fluorescence dose-response of purified binding-pocket-engineered sensors (0.75 uM) in 100 mM Tris-HCl pH 7.5, room temperature, 1 mM ATP, 2.5 mM MgCl2, excitation 460 or 480 nm, emission 510 nm; logistic five-parameter fit. It is filed as biochemical. Conditions: n = 3. The method, then: (§3) Fig. 4 Engineering ligand specificity of GrsA-PheA for generating […]s. a The selectivity-conferring code of Phe and Leu A domains. b–f Dose–response curve of purified […]s with increasing concentrations of ligands in 100 mM Tris-HCl buffer (pH=7.5). All data shown are means ± S.D. (n = 3 biologically independent samples). g A series of […] reactions was tested to show the […]’s specificity with 20 proteinogenic amino acids. The values on the heatmap represent the ΔF/F0 value normalized to each […]’s maximal ΔF/F0 value ((ΔF/F0)/maximal ΔF/F0). The concentrations of 20 amino acids were 100 μM. The color indicates the average value of three independent biological replicates after 15 min. All data shown are means ± S.D. (n = 3 biologically independent samples). Source data are provided as a Source data file.
as §2

Data set [4] in a line: Dose–response curve of purified […] with R-β-phenylalanine. It counts as biochemical. On the procedure:
as §3, §2

Another data set addresses T6, GECFINDER-His2 (Bacillus licheniformis, UniProt O68008).
T6 construct: gene bacC; BacC-HisA-PCP; cpEGFP inserted, linkers GG-PV
Briefly: Fluorescence dose-response of purified cpEGFP sensors (0.75 uM) in 100 mM Tris-HCl pH 7.5, room temperature, 1 mM ATP, 2.5 mM MgCl2; excitation 400, 460 or 480 nm by sensor, emission 510 nm; logistic five-parameter fit. It is filed as biochemical. Conditions: n = 3. On the procedure:
as §1, §2

The next data set deals with T7, GECFINDER-His1 (Bacillus licheniformis, UniProt O68008).
T7 construct: gene bacC; BacC-HisA-PCP; cpEGFP inserted, linkers GA-HC
Described as above. Conditions: n = 3. It is filed as biochemical. The method, then: as §1, §2

Data set [5] can be described thus: Dose–response curve of purified […] with glutamic acid. It is filed as biochemical. Details: key: normalized ΔF/F0 (fluorescence change relative to baseline F0). On the procedure: as §1, §2
For a further data set, the target named is T8, GECFINDER-Glu (Bacillus subtilis, UniProt P39845).
T8 construct: gene ppsA; PpsA-GluA-PCP; cpEGFP inserted, linkers HS-WL
Briefly: Fluorescence dose-response of purified cpEGFP sensors (0.75 uM) in 100 mM Tris-HCl pH 7.5, room temperature, 1 mM ATP, 2.5 mM MgCl2; excitation 400, 460 or 480 nm by sensor, emission 510 nm; logistic five-parameter fit. It is filed as biochemical. Conditions: n = 3. The method, then: as §1, §2

The next data set has as its target GECFINDER-SβF. Nature of the data set: Fluorescence dose-response of purified binding-pocket-engineered sensors (0.75 uM) in 100 mM Tris-HCl pH 7.5, room temperature, 1 mM ATP, 2.5 mM MgCl2, excitation 460 or 480 nm, emission 510 nm; logistic five-parameter fit. It is filed as biochemical. The note with it: n = 3. The method, then: as §3, §2

SMILES strings stand for the structures.

Regarding `O=C(O)[C@@H]1CCCN1` [Pro], the “Dose-response, AVE of Repeat 1-3 (Fig. 3 g)” value in data set [1] (Pro 0.0002 μM) is recorded as -7.17e-17; in data set [1] (Pro 0.002 μM), 0.0174; in data set [1] (Pro 0.02 μM) it was 0.02154; in data set [1] (Pro 0.2 μM), 0.03875; in data set [1] (Pro 2 μM), 0.04783; in [1] (Pro 20 μM) it was 0.05475. The “Dose-response, AVE of Repeat 1-3 (Fig. 3 g)” value was found to be 0.06466 in [1] (Pro 100 μM); 0.07263 in data set [1] (Pro 200 μM); 0.09025 in data set [1] (Pro 500 μM); 0.09711 in data set [1] (Pro 1000 μM); 0.09414 in data set [1] (Pro 2000 μM); 0.08171 in [1] (Pro 4000 μM). Also, the “Wavelength scan, AVE of Repeat 1-3 (Fig. 3 h)” value in data set [2] (0.0002 μM Pro) was determined as 1526; in [2] (20 μM Pro), 1565; in data set [2] (2000 μM Pro), 1543.33. The “fluorescence response of GECFINDER to each substrate, AVE of 3 repeats” value (shortened to “fluorescence response of GECFINDER”) in [3] is listed as -0.002038.
As to `CC[C@H](C)[C@H](N)C(=O)O` [Ile, isoleucine], the values for the EC50 at GECFINDER-Ile3, on GECFINDER-Ile1 and on GECFINDER-Ile2 were 186 ± 61 µM, 161 ± 32.1 µM and 221 ± 66.3 µM, respectively.
For `N[C@@H](Cc1ccc(O)cc1)C(=O)O` [Tyr, tyrosine], the half-maximal effective concentration (EC50) at GECFINDER-Phe3 came to 225 ± 17.9 µM; on GECFINDER-Tyr, 89.8 ± 6.71 µM.
With `N[C@H](CC(=O)O)c1ccccc1` [R-β-Phe], the “fluorescence response of GECFINDER” value in data set [3] was 0.4936. Also, the “AVE, dose-response Fig. 4 f” value in data set [4] (substrate R-β-Phe 0.0001 μM) is listed as -0.0001175; in [4] (substrate R-β-Phe 0.001 μM), -0.003533; in [4] (substrate R-β-Phe 0.01 μM) it was -3.814e-5; in [4] (substrate R-β-Phe 0.1 μM), 0.008066; in [4] (substrate R-β-Phe 1 μM), 0.06811; in data set [4] (substrate R-β-Phe 5 μM), 0.06226. Besides, the “AVE, dose-response Fig. 4 f” value in data set [4] (substrate R-β-Phe 10 μM) stood at 0.1204; in data set [4] (substrate R-β-Phe 50 μM), 0.3026; in [4] (substrate R-β-Phe 100 μM) it was 0.3923; in data set [4] (substrate R-β-Phe 500 μM) it was 0.5534; in data set [4] (substrate R-β-Phe 1000 μM), 0.5949; in data set [4] (substrate R-β-Phe 2000 μM), 0.5892.
As for `N[C@@H](Cc1c[nH]cn1)C(=O)O` [His, histidine], the values for the EC50 at GECFINDER-His2 and at GECFINDER-His1 were 13.2 ± 4.26 µM and 10.4 ± 4.74 µM, respectively.
As to `N[C@@H](CCC(=O)O)C(=O)O` [Glu], the “Wavelength scan, AVE of Repeat 1-3 (Fig. 3 f)” value is recorded as 86.3333 in data set [2] (0.1 μM Glu), 106 in data set [2] (5 μM Glu) and 120.667 in data set [2] (500 μM Glu). The “fluorescence response of GECFINDER” value in data set [3] is given as -0.007518. The “Dose-response, AVE of Repeat 1-3 (Fig. 3 e)” value in data set [5] (Glu 0.1 μM) stood at 0; in data set [5] (Glu 1 μM) it was 0.02632; in data set [5] (Glu 2 μM), 0.0378; in [5] (Glu 5 μM) it was 0.1147; in data set [5] (Glu 10 μM), 0.1961; in [5] (Glu 20 μM), 0.322. In addition, the “Dose-response, AVE of Repeat 1-3 (Fig. 3 e)” value in [5] (Glu 50 μM) was found to be 0.5379; in [5] (Glu 100 μM) it was 0.6984; in [5] (Glu 200 μM), 0.8758; in [5] (Glu 500 μM), 1.002; in data set [5] (Glu 750 μM), 0.9874; in data set [5] (Glu 1000 μM) it was 0.9487.
Regarding `N[C@@H](CCC(=O)O)C(=O)O` [Glu, glutamic acid], the EC50 on GECFINDER-Glu turned out to be 42.9 ± 3.93 µM.
`N[C@@H](CC(=O)O)c1ccccc1` [S-β-Phe, S-β-phenylalanine]: the EC50 on GECFINDER-Phe3 is 13.6 ± 1.28 µM; on GECFINDER-SβF, 7.4 ± 0.45 µM.
As for `N[C@H](CC(=O)O)c1ccccc1` [R-β-Phe, R-β-phenylalanine], the EC50 on GECFINDER-SβF was determined as 54.6 ± 7.66 µM.

For orientation: EC50 means the midpoint of the concentration-response curve.
